Reference: patent EP4722207A1, “OXOISOINDOLINYL-SUBSTITUTED TETRAHYDROPYRIMIDINEDIONE DERIVATIVE AND USE THEREOF” (Gluetacs Therapeutics (Shanghai) Co., Ltd., priority 2023, dated 2024)

What was measured:
Assay type in all cases: cell-based
WEE1 = biological target: T1, WEE1 (Homo sapiens, UniProt P30291+Q96SW2); experiment: Western-blot assay, substrate protein degradation in hPBMCs: WEE1; conditions: for substrate protein remaining % WEE1: 24 hours of compound treatment, 50 nM and 500 nM; for WEE1 substrate protein remaining %: compounds at 50 nM and 500 nM, 24 hours
T1 construct: effects of the compounds of the present disclosure on the expression of target proteins in cells; endogenous in cells; host or cells: human PBMCs (hPBMCs)
T1 sequence (P30291 whole entry): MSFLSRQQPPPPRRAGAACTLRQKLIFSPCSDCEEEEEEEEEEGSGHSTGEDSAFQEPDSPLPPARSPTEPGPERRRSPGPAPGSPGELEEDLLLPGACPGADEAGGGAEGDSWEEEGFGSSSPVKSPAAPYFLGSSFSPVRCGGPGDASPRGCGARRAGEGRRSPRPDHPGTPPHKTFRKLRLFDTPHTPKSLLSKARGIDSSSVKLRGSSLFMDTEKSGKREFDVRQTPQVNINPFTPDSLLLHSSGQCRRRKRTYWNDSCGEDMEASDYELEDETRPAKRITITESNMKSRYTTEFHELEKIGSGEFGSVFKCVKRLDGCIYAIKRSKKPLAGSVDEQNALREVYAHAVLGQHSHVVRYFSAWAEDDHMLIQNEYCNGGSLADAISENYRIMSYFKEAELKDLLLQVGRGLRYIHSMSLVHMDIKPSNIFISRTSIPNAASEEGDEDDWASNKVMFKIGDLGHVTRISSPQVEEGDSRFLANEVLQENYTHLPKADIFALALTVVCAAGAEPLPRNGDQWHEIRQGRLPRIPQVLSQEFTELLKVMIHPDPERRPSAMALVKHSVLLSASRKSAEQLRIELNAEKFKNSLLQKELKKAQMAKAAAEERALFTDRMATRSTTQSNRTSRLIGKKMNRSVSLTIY
T1 sequence (Q96SW2 whole entry): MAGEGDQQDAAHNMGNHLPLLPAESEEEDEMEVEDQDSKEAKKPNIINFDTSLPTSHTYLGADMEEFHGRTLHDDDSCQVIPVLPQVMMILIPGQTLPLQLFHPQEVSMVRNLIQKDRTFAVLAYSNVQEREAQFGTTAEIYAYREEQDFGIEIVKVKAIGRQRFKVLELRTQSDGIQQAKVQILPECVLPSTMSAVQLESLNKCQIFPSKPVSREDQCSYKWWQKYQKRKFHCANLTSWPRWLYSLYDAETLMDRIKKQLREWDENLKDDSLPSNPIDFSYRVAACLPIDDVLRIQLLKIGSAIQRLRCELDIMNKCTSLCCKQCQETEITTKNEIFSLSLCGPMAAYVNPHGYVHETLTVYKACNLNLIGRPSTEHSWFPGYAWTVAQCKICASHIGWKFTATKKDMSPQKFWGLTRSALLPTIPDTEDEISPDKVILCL
T1 sequence (Q16531 whole entry partner): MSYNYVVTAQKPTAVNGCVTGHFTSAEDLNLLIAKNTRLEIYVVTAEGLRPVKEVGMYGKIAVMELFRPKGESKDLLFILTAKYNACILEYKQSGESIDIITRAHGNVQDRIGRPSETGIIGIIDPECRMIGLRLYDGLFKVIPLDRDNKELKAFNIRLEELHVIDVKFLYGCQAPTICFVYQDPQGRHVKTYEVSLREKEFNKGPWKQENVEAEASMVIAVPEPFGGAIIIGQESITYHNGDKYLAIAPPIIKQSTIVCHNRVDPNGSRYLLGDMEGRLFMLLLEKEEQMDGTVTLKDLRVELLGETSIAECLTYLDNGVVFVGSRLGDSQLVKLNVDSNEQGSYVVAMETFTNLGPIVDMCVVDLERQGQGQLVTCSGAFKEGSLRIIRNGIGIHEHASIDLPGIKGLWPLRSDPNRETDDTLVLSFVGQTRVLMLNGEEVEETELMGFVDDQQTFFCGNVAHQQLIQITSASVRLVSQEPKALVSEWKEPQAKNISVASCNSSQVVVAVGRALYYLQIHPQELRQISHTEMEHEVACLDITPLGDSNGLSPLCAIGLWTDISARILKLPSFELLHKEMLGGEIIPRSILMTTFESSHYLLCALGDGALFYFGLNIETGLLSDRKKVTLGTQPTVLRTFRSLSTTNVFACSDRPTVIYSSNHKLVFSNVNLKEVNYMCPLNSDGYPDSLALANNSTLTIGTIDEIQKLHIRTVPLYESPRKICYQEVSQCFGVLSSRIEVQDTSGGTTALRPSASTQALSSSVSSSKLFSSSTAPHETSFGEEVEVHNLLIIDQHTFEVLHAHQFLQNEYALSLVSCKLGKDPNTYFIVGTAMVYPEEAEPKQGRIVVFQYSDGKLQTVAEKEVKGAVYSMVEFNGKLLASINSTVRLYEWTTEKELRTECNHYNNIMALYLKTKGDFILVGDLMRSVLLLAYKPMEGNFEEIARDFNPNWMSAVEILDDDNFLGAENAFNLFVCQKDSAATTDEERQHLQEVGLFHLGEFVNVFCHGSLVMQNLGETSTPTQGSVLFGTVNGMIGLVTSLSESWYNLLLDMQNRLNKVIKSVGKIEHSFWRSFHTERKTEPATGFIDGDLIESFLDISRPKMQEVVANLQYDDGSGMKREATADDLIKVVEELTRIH

IKZF1 = biological target: T2, IKZF1 (Homo sapiens, UniProt Q13422+Q96SW2); experiment: Western-blot assay, substrate protein degradation in hPBMCs: IKZF1; conditions: for substrate protein remaining % IKZF1: 24 hours of compound treatment, 50 nM and 500 nM; for IKZF1 substrate protein remaining %: compounds at 50 nM and 500 nM, 24 hours
T2 construct: effects of the compounds of the present disclosure on the expression of target proteins in cells; endogenous in cells; host or cells: human PBMCs (hPBMCs)
T2 sequence (Q13422 whole entry): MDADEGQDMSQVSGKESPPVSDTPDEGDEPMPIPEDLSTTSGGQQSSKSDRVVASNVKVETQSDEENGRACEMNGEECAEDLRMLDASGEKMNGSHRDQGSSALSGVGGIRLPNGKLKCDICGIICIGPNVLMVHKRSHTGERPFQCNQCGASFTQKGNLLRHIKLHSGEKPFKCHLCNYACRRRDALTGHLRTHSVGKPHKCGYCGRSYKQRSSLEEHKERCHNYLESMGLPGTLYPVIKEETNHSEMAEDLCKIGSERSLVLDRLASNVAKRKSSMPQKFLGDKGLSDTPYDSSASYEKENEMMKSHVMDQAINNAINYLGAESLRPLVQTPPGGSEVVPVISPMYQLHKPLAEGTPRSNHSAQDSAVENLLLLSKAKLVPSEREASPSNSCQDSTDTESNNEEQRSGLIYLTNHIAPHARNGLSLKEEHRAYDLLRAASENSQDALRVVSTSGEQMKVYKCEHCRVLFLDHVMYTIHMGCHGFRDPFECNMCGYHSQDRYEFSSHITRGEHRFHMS
T2 sequence (Q96SW2 whole entry): as the sequence (Q96SW2 whole entry) above
T2 sequence (Q16531 whole entry partner): as the sequence (Q16531 whole entry partner) above

IKZF2 = biological target: T3, IKZF2 (Homo sapiens, UniProt Q96SW2+Q9UKS7); experiment: Western-blot assay, substrate protein degradation in hPBMCs: IKZF2; conditions: for substrate protein remaining % IKZF2: 24 hours of compound treatment, 50 nM and 500 nM; for IKZF2 substrate protein remaining %: compounds at 50 nM and 500 nM, 24 hours
T3 construct: effects of the compounds of the present disclosure on the expression of target proteins in cells; endogenous in cells; host or cells: human PBMCs (hPBMCs)
T3 sequence (Q9UKS7 whole entry): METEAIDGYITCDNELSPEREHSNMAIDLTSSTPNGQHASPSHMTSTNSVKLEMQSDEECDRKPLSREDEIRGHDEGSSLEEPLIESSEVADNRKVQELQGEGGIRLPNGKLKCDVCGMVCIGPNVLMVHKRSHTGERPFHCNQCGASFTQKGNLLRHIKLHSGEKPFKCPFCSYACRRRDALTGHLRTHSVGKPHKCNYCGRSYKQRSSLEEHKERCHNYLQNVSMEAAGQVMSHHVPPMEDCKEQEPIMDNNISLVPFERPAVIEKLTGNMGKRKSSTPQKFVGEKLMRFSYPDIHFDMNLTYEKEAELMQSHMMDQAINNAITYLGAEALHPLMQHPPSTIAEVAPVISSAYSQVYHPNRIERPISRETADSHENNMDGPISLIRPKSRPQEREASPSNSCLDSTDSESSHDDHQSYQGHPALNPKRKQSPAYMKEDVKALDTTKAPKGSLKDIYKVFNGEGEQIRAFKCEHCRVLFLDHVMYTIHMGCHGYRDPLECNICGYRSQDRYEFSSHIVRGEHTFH
T3 sequence (Q96SW2 whole entry): as the sequence (Q96SW2 whole entry) above
T3 sequence (Q16531 whole entry partner): as the sequence (Q16531 whole entry partner) above

IKZF3 = biological target: T4, IKZF3 (Homo sapiens, UniProt Q96SW2+Q9UKT9); experiment: Western-blot assay, substrate protein degradation in hPBMCs: IKZF3; conditions: for substrate protein remaining % IKZF3: 24 hours of compound treatment, 50 nM and 500 nM; for IKZF3 substrate protein remaining %: compounds at 50 nM and 500 nM, 24 hours
T4 construct: effects of the compounds of the present disclosure on the expression of target proteins in cells; endogenous in cells; host or cells: human PBMCs (hPBMCs)
T4 sequence (Q9UKT9 whole entry): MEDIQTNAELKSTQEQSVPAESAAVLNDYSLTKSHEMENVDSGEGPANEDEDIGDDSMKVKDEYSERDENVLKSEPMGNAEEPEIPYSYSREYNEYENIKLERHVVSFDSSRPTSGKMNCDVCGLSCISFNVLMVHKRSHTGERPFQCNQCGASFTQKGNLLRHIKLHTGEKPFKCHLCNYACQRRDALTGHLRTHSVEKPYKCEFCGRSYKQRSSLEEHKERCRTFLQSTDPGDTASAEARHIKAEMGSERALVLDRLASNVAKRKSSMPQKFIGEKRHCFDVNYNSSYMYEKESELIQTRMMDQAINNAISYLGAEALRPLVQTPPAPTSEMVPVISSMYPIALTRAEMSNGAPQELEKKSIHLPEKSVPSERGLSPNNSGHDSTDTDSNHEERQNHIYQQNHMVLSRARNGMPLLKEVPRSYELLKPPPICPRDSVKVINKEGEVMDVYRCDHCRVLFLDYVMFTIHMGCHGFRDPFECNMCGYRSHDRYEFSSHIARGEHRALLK
T4 sequence (Q96SW2 whole entry): as the sequence (Q96SW2 whole entry) above
T4 sequence (Q16531 whole entry partner): as the sequence (Q16531 whole entry partner) above

CK1α = biological target: T5, CK1α (Homo sapiens, UniProt P48729+Q96SW2); experiment: Western-blot assay, substrate protein degradation in hPBMCs: CK1α; conditions: for substrate protein remaining % CK1α: 24 hours of compound treatment, 50 nM and 500 nM; for CK1α substrate protein remaining %: compounds at 50 nM and 500 nM, 24 hours
T5 construct: effects of the compounds of the present disclosure on the expression of target proteins in cells; endogenous in cells; host or cells: human PBMCs (hPBMCs)
T5 sequence (P48729 whole entry): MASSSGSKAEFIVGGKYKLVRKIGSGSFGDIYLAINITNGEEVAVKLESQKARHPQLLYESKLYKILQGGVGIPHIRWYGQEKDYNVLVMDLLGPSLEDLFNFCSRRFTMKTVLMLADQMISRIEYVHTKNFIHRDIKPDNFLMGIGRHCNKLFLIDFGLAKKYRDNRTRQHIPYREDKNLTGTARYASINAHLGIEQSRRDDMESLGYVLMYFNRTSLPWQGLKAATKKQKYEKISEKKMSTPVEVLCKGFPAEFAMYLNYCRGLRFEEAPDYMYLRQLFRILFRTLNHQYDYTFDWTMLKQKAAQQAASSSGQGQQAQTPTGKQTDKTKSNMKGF
T5 sequence (Q96SW2 whole entry): as the sequence (Q96SW2 whole entry) above
T5 sequence (Q16531 whole entry partner): as the sequence (Q16531 whole entry partner) above

GSPT1 = biological target: T6, GSPT1 (Homo sapiens, UniProt P15170+Q96SW2); experiment: Western-blot assay, substrate protein degradation in hPBMCs: GSPT1; conditions: for substrate protein remaining % GSPT1: 24 hours of compound treatment, 50 nM and 500 nM; for GSPT1 substrate protein remaining %: compounds at 50 nM and 500 nM, 24 hours
T6 construct: effects of the compounds of the present disclosure on the expression of target proteins in cells; endogenous in cells; host or cells: human PBMCs (hPBMCs)

SMILES	substrate protein remaining % WEE1 (WEE1)	substrate protein remaining % IKZF1 (IKZF1)	substrate protein remaining % IKZF2 (IKZF2)	substrate protein remaining % IKZF3 (IKZF3)	substrate protein remaining % CK1α (CK1α)	substrate protein remaining % GSPT1 (GSPT1)	WEE1 substrate protein remaining % (WEE1)	IKZF1 substrate protein remaining % (IKZF1)	IKZF2 substrate protein remaining % (IKZF2)	IKZF3 substrate protein remaining % (IKZF3)	CK1α substrate protein remaining % (CK1α)	GSPT1 substrate protein remaining % (GSPT1)
O=C1CCN(N2C(=O)c3ccc(CN4CCC(c5n[nH]c6cc(F)ccc56)CC4)cc3C2=O)C(=O)N1 [GT-07530, 2-(2,4-dioxotetrahydropyrimidin-1(2H)-yl)-5-((4-(6-fluoro-1H-indazol-3-yl)piperidin-1-yl)methyl)isoindoline-1,3-dione]	A (0% ≤ substrate protein remaining % ≤ 80%)	B (80%< substrate protein remaining %≤ 100%)	B (80%< substrate protein remaining %≤ 100%)	B (80%< substrate protein remaining %≤ 100%)	A (0% ≤ substrate protein remaining % ≤ 80%)	A (0% ≤ substrate protein remaining % ≤ 80%)	–	–	–	–	–	–
O=C1CCN(N2C(=O)c3ccc(CN4CCN(C(c5ccc(F)cc5)c5ccc(F)cc5)CC4)cc3C2=O)C(=O)N1 [GT-05268, 5-((4-(bis(4-fluorophenyl)methyl)piperazin-1-yl)methyl)-2-(2,4-dioxotetrahydropyrimidin-1(2H)-yl)isoindoline-1,3-dione]	–	–	–	–	–	–	B ("B" is defined as 80%< substrate protein remaining %≤ 100%)	B ("B" is defined as 80%< substrate protein remaining %≤ 100%)	B ("B" is defined as 80%< substrate protein remaining %≤ 100%)	A ("A" is defined as 0% ≤ substrate protein remaining % ≤ 80%)	A ("A" is defined as 0% ≤ substrate protein remaining % ≤ 80%)	A ("A" is defined as 0% ≤ substrate protein remaining % ≤ 80%)
O=C1CCN(N2C(=O)c3ccc(CN4CCC(c5cccc6cnccc56)CC4)cc3C2=O)C(=O)N1 [GT-07688, 2-(2,4-dioxotetrahydropyrimidin-1(2H)-yl)-5-((4-(isoquinolin-5-yl)piperidin-1-yl)methyl)isoindoline-1,3-dione]	B (80%< substrate protein remaining %≤ 100%)	B (80%< substrate protein remaining %≤ 100%)	B (80%< substrate protein remaining %≤ 100%)	B (80%< substrate protein remaining %≤ 100%)	B (80%< substrate protein remaining %≤ 100%)	A (0% ≤ substrate protein remaining % ≤ 80%)	–	–	–	–	–	–
Cc1ccc(Cl)cc1N1CCN(Cc2ccc3c(c2)CN(N2CCC(=O)NC2=O)C3=O)CC1 [GT-06883, 1-(5-((4-(5-chloro-2-methylphenyl)piperazin-1-yl)methyl)-1-oxoisoindolin-2-yl)dihydropyrimidine-2,4(1H,3H)-dione]	–	–	–	–	–	–	A ("A" is defined as 0% ≤ substrate protein remaining % ≤ 80%)	A ("A" is defined as 0% ≤ substrate protein remaining % ≤ 80%)	B ("B" is defined as 80%< substrate protein remaining %≤ 100%)	B ("B" is defined as 80%< substrate protein remaining %≤ 100%)	B ("B" is defined as 80%< substrate protein remaining %≤ 100%)	A ("A" is defined as 0% ≤ substrate protein remaining % ≤ 80%)
O=C1CCN(N2Cc3cc(CN4CCC(c5n[nH]c6cc(F)ccc56)CC4)ccc3C2=O)C(=O)N1 [GT-07508, 1-(5-((4-(6-fluoro-1H-indazol-3-yl)piperidin-1-yl)methyl)-1-oxoisoindolin-2-yl)dihydropyrimidine-2,4(1H,3H)-dione]	A (0% ≤ substrate protein remaining % ≤ 80%)	A (0% ≤ substrate protein remaining % ≤ 80%)	A (0% ≤ substrate protein remaining % ≤ 80%)	B (80%< substrate protein remaining %≤ 100%)	A (0% ≤ substrate protein remaining % ≤ 80%)	A (0% ≤ substrate protein remaining % ≤ 80%)	–	–	–	–	–	–
CC1CN(C(c2ccccc2)c2ccccc2)CC(C)N1Cc1ccc2c(c1)CN(N1CCC(=O)NC1=O)C2=O (stereo not drawn) [GT-07433, 1-(5-((4-benzhydryl-2,6-dimethylpiperazin-1-yl)methyl)-1-oxoisoindolin-2-yl)dihydropyrimidine-2,4(1H,3H)-dione]	B (80%< substrate protein remaining %≤ 100%)	B (80%< substrate protein remaining %≤ 100%)	A (0% ≤ substrate protein remaining % ≤ 80%)	B (80%< substrate protein remaining %≤ 100%)	A (0% ≤ substrate protein remaining % ≤ 80%)	B (80%< substrate protein remaining %≤ 100%)	–	–	–	–	–	–
Cc1ccc(N2CCN(Cc3ccc4c(c3)C(=O)N(N3CCC(=O)NC3=O)C4=O)CC2)s1 [GT-05309, 2-(2,4-dioxotetrahydropyrimidin-1(2H)-yl)-5-((4-(5-methylthiophen-2-yl)piperazin-1-yl)methyl)isoindoline-1,3-dione]	–	–	–	–	–	–	B ("B" is defined as 80%< substrate protein remaining %≤ 100%)	B ("B" is defined as 80%< substrate protein remaining %≤ 100%)	B ("B" is defined as 80%< substrate protein remaining %≤ 100%)	B ("B" is defined as 80%< substrate protein remaining %≤ 100%)	B ("B" is defined as 80%< substrate protein remaining %≤ 100%)	A ("A" is defined as 0% ≤ substrate protein remaining % ≤ 80%)
O=C1CCN(N2C(=O)c3ccc(CN4CCC(c5ccsc5)CC4)cc3C2=O)C(=O)N1 [GT-07420, 2-(2,4-dioxotetrahydropyrimidin-1(2H)-yl)-5-((4-(thiophen-3-yl)piperidin-1-yl)methyl)isoindoline-1,3-dione]	B (80%< substrate protein remaining %≤ 100%)	B (80%< substrate protein remaining %≤ 100%)	B (80%< substrate protein remaining %≤ 100%)	B (80%< substrate protein remaining %≤ 100%)	A (0% ≤ substrate protein remaining % ≤ 80%)	A (0% ≤ substrate protein remaining % ≤ 80%)	–	–	–	–	–	–
O=C1CCN(N2Cc3cc(CN4CCN(c5ncnc(Cl)c5Cl)CC4)ccc3C2=O)C(=O)N1 [GT-07028, 1-(5-((4-(5,6-dichloropyrimidin-4-yl)piperazin-1-yl)methyl)-1-oxoisoindolin-2-yl)dihydropyrimidine-2,4(1H,3H)-dione]	–	–	–	–	–	–	A ("A" is defined as 0% ≤ substrate protein remaining % ≤ 80%)	B ("B" is defined as 80%< substrate protein remaining %≤ 100%)	B ("B" is defined as 80%< substrate protein remaining %≤ 100%)	B ("B" is defined as 80%< substrate protein remaining %≤ 100%)	B ("B" is defined as 80%< substrate protein remaining %≤ 100%)	A ("A" is defined as 0% ≤ substrate protein remaining % ≤ 80%)
O=C1CCN(N2C(=O)c3ccc(CN4CCN(c5ncccn5)CC4)cc3C2=O)C(=O)N1 [GT-07285, 2-(2,4-dioxotetrahydropyrimidin-1(2H)-yl)-5-((4-(pyrimidin-2-yl)piperazin-1-yl)methyl)isoindoline-1,3-dione]	–	–	–	–	–	–	A ("A" is defined as 0% ≤ substrate protein remaining % ≤ 80%)	A ("A" is defined as 0% ≤ substrate protein remaining % ≤ 80%)	B ("B" is defined as 80%< substrate protein remaining %≤ 100%)	B ("B" is defined as 80%< substrate protein remaining %≤ 100%)	B ("B" is defined as 80%< substrate protein remaining %≤ 100%)	B ("B" is defined as 80%< substrate protein remaining %≤ 100%)
CC1(C)CCC(CN2C3CC2CN(Cc2ccc4c(c2)C(=O)N(N2CCC(=O)NC2=O)C4=O)C3)=C(c2ccc(Cl)cc2)C1 [GT-06459, 5-((6-((4'-chloro-5,5-dimethyl-3,4,5,6-tetrahydro-[1,1'-biphenyl]-2-yl)methyl)-3,6-diazabicyclo[3.1.1]heptan-3-yl)methyl)-2-(2,4-dioxotetrahydropyrimidin-1(2H)-yl)isoindoline-1,3-dione]	–	–	–	–	–	–	A ("A" is defined as 0% ≤ substrate protein remaining % ≤ 80%)	A ("A" is defined as 0% ≤ substrate protein remaining % ≤ 80%)	A ("A" is defined as 0% ≤ substrate protein remaining % ≤ 80%)	A ("A" is defined as 0% ≤ substrate protein remaining % ≤ 80%)	A ("A" is defined as 0% ≤ substrate protein remaining % ≤ 80%)	A ("A" is defined as 0% ≤ substrate protein remaining % ≤ 80%)
O=C1CCN(N2C(=O)c3ccc(CN4CCN(c5ccnc(Cl)c5F)CC4)cc3C2=O)C(=O)N1 [GT-07166, 5-((4-(2-chloro-3-fluoropyridin-4-yl)piperazin-1-yl)methyl)-2-(2,4-dioxotetrahydropyrimidin-1(2H)-yl)isoindoline-1,3-dione]	–	–	–	–	–	–	B ("B" is defined as 80%< substrate protein remaining %≤ 100%)	B ("B" is defined as 80%< substrate protein remaining %≤ 100%)	A ("A" is defined as 0% ≤ substrate protein remaining % ≤ 80%)	B ("B" is defined as 80%< substrate protein remaining %≤ 100%)	B ("B" is defined as 80%< substrate protein remaining %≤ 100%)	A ("A" is defined as 0% ≤ substrate protein remaining % ≤ 80%)
